“Also recorded” adds a separate entry of the source. Read-outs that look alike come from different tables or passages of the source.
Tests used:
human skin fibroblasts [1] = test system: human skin fibroblasts
Method: (§1) Oxygenated medium was prepared using powder cell medium, diluted with Oxy Water prepared according to Example 5. The mixing ratio depended on the desired concentration of dissolved oxygen in the final cell medium. DMEM or DMEM medium without phenol red was used (Sigma Aldrich). The medium was supplied with additives and FBS. The phenol red free cell medium was used for the ROS experiment to avoid disturbance of the fluorescent readings.

human skin fibroblasts [2] = test: Reactive oxygen species (ROS) production in human skin fibroblasts (DCFDA); details: 30 min; for ROS, relative fluorescence (×10^3): 5% FBS; for ROS production compared to control: DO 21-35 mg/L, 5% FBS (5% or 10% FBS), control 8.6 mg/L
Method: as §1
HSFs were seeded at a density of 2.5×10^4 cells/0.32 cm^2 and were grown to confluence overnight. The cells were stained with 20 uM DCFDA solution (2′,7′-dichlorofluorescin diacetate) (DCFDA Cellular ROS Detection Assay Kit, Abcam, Cambridge, UK) and incubated for 45 min at 37° C. protected from light exposure. Control cell medium (5% FBS, dissolved oxygen: 8.6 mg/L), oxygenated cell medium (5% FBS, dissolved oxygen: 21.6, 26.5, 34.9 mg/L) and positive control (500 μM H2O2, 5% FBS, dissolved oxygen: 8.6 mg/L) were added. The cells were incubated at room temperature. The fluorescence was read with an FLx800 plate reader (BioTek, Winooski, USA) with excitation wavelength at 485 nm and emission wavelength 520 nm, 30 min after adding the treatments. The values were corrected for blank readings and presented as relative fluorescence (×10^3). The experiments were repeated using 10% FBS.

human skin fibroblasts [3] = details: DO up to 50 mg/L, DMEM w/1% FBS, control 11 mg/L; for cell viability / number of dead cells compared to control: 4 days; for proliferation compared to control: up to 4 days
Method: as §1
HSFs were seeded at a density of 5×10^4 cells/25 cm^2 and left overnight. The cells were treated with control cell medium (1% FBS, dissolved oxygen: 11 mg/L), oxygenated cell medium (1% FBS, dissolved oxygen: 23, 31, 41, 50 mg/L), or 10% FBS, dissolved oxygen: 10 mg/L. After stimulation, the cells were left at room temperature for 30 min, followed by incubation at 37° C. The treatment was repeated every 24 hours up to 4 days. On day 2, 3 and 4 the cells were harvested; the cell suspension was mixed with trypan blue and live cells were manually counted using a hemocytometer and dead cells were counted using a TC20 Automated cell counter (BioRad, USA). 1% Triton X was used as a positive control for cell death.

O=O [dissolved oxygen]
ATP levels (human skin fibroblasts [1]; 33 mg/L DO, DMEM w/10% FBS, 4 h, re-stimulated at 1, 2 and 3 hours): 113.1 nm ATP/10^5 cells
levels of ATP (human skin fibroblasts [1]; 33 mg/L dissolved oxygen, four hourly stimulations): 113.1±10.1 nM ATP/10^5 live cells
ROS, relative fluorescence (×10^3) (human skin fibroblasts [2]; 21.6 mg/L dissolved oxygen): 9.3±3.4
ROS, relative fluorescence (×10^3) (human skin fibroblasts [2]; 26.5 mg/L dissolved oxygen): 15.2±4.5
ROS, relative fluorescence (×10^3) (human skin fibroblasts [2]; 34.9 mg/L dissolved oxygen): 8.9±2.9
ROS production compared to control (human skin fibroblasts [2]): did not significantly change; also recorded: no significant increase
ROS production compared to control (human skin fibroblasts [2]; listed as DO): no significant differences
cell viability / number of dead cells compared to control (human skin fibroblasts [3]): nor did it change the level of cell viability
cell viability / number of dead cells compared to control (human skin fibroblasts [3]; listed as DO): did not significantly alter the number of dead cells
proliferation compared to control (human skin fibroblasts [3]): did not change cell proliferation
proliferation compared to control (human skin fibroblasts [3]; listed as DO): did not significantly alter the proliferation rate

— US20190262266A1, “FORMULATIONS” (OXY SOLUTIONS AS, priority 2016, published 2019)
